The source of these data is patent publication US11266715B2, “C3A receptor agonists for use against ischemic brain injury, stroke, traumatic brain injury, spinal cord injury and neurodegenerative disorders” (priority 2016, dated 2022).

The assay deals with synapsin I+ puncta. In words: Synapsin I immunostaining of dorsal hippocampus after neonatal HI. Format: in vivo, mouse. As to conditions: between groups or hemispheres. The procedure:
Neuronal nuclei (NeuN), growth associated protein 43 (GAP-43), synapsin I (SYN), vesicular glutamate transporter 1 (VGLUT1), Glial Fibrillary Acidic Protein (GFAP) and ionized calcium-binding adapter molecule 1 (Iba-1) were visualized in the cornu ammonis (CA) and dentate gyrus (DG) of the dorsal hippocampus by immunohistochemistry. Briefly, following heat-induced antigen retrieval with 0.01 M citrate buffer (pH 6, 0.05% Tween 20) for 3×5 min, sections were washed 3×5 min with PBS-T (0.05% Tween 20), non-specific protein binding was reduced by incubation with blocking buffer [4% normal donkey serum (NeuN and Iba-1), 1% bovine serum albumin (GAP-43 and SYN), 3% normal goat serum (VGLUT1), 2% bovine serum albumin (GFAP) in PBS-T] for 1 h at room temperature (RT). […]
NeuN positive cells, GFAP positive relative area, as well as GAP-43, SYN, and VGLUT1 positive puncta were counted by using MetaMorph software (ver. 7.8.6, Molecular Devices, CA, USA) on confocal images obtained with a 20× (NeuN and GFAP) or 63× (GAP-43, SYN, and VGLUT1) objective (Carl Zeiss LSM 700 Laser Scanning Microscope, Jena, Germany). Iba-1 positive cell somata were counted on bright field images obtained with a 20× objective (Nikon Eclipse 80i). […]

“C3a: Purified human C3a peptide (Complement Technologies), C3a receptor agonist, amino acid sequence SEQ ID NO: 1”: the “density or average area of synapsin I+ puncta in CA1 or dentate gyrus” value is “did not find any differences”.
